Data taken from patent publication US9533973B2, “Allosteric modulators of 5-hydroxytryptamine 2C receptor (5-HT2CR)” (THE BOARD OF REGENTS OF THE UNIVERSITY OF TEXAS SYSTEM, priority 2011, dated 2017).

How the values were obtained:
5-HT2AR = target: T1, 5-HT2AR (Homo sapiens, UniProt P28223); test: 5-HT induced intracellular calcium (Cai++) release assay in live 5-HT2AR-CHO cells; assay type: cell-based; conditions: compound alone or in the presence of 5-HT
T1 construct: expressed in transfected cells; host or cells: CHO cells (5-HT2AR—CHO)
Procedure: Selected results for the biological characterization of the synthesized compounds can be found in Ding et al., ACS Chem. Neurosci., 3, 538-545, 2012, and also described herein. The biological activity is assessed using an intracellular calcium (Cai^++) release assay. The best-characterized intracellular signaling pathway of the 5-HT2CR is the activation of phospholipase C (PLCβ) via Gαq/11 proteins and the production of diacylglycerol (DAG) and inositol-1,4,5-trisphosphate (IP3), leading to increased Cai^++ release from intracellular stores (Berg et al., Neuropharmacology 55, 969-76, 2008). Functional characterization of our synthetic PNU-69176E (CYD-1-78-2) and its diastereomer CYD-1-78-1 was determined by utilizing an Cai^++ release assay in live cells in which Cai^++ levels can be regarded as an outcome measure of activation of the 5-HT2CR signaling pathway (Berg et al., Neuropharmacology 55, 969-76, 2008). […]
Changes in Cai^++ levels were determined using the calcium sensitive dye Calcium 4 (FLIPR No-wash kit, Molecular Devices, Sunnyvale, Calif., part #R8142). […] Fluorescence (λex=485 nm, λem=525 nm) was measured with a FlexStation3 (Molecular Devices). […] Addition of 20 μL of 5× concentrated tested compound occurred at 17 sec and fluorescence was recorded every 1.7 sec for 90 sec to determine any innate agonist activity. […]

5-HT2CR = target: T2, 5-HT2CR (Homo sapiens, UniProt P28335); test: 5-HT induced intracellular calcium (Cai++) release assay in live 5-HT2CR-CHO cells; assay type: cell-based; set-up: expressed in transfected cells
T2 sequence (P28335 33-458): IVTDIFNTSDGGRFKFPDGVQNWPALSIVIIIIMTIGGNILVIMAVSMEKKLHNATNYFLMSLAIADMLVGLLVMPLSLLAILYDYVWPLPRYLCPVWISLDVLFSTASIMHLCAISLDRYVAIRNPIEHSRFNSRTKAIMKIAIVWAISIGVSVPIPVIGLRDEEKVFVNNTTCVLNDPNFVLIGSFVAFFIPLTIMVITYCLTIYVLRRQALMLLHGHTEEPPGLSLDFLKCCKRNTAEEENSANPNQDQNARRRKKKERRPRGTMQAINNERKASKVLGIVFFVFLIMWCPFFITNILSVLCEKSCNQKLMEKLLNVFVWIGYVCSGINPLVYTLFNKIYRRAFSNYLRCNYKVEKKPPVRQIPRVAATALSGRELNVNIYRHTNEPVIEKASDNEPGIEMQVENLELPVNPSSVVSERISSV
Procedure: Selected results for the biological characterization of the synthesized compounds can be found in Ding et al., ACS Chem. Neurosci., 3, 538-545, 2012, and also described herein. The biological activity is assessed using an intracellular calcium (Cai^++) release assay. The best-characterized intracellular signaling pathway of the 5-HT2CR is the activation of phospholipase C (PLCβ) via Gαq/11 proteins and the production of diacylglycerol (DAG) and inositol-1,4,5-trisphosphate (IP3), leading to increased Cai^++ release from intracellular stores (Berg et al., Neuropharmacology 55, 969-76, 2008). Functional characterization of our synthetic PNU-69176E (CYD-1-78-2) and its diastereomer CYD-1-78-1 was determined by utilizing an Cai^++ release assay in live cells in which Cai^++ levels can be regarded as an outcome measure of activation of the 5-HT2CR signaling pathway (Berg et al., Neuropharmacology 55, 969-76, 2008). […] In addition, 1 nM of compound CYD-1-78-2 enhanced the Cai^++ response at low concentrations of 5-HT [10^11-3×10^−10 M; F(15,55)=16.73, p<0.01; FIG. 2]. […] Neither compound CYD-1-78-2 [F(10,68)=0.81, n.s.] nor the diastereomer CYD-1-78-1 [F(10,34)=0.76, n.s.] in concentrations up to 10^−5 M induced Cai^++ release in the 5-HT2CR—CHO cells in the absence of 5-HT (FIG. 3). This profile for compounds CYD-1-78-2 and −1 in 5-HT2CR—CHO cells was distinguished from that seen in 5-HT2AR—CHO cells in which neither compound alone or in the presence of 5-HT (compound CYD-1-78-1, F(10,43)=0.78; compound CYD-1-78-2, F(10,55)=1.27; FIG. 4) altered Cai^++ release (Ding et al., ACS Chem. Neurosci. 3, 538-545, 2012).
The Chinese hamster ovary (CHO) cell line stably transfected with 5-HT2CR was a generous gift of K. Berg and W. Clarke (University of Texas Health Science Center, San Antonio) (K. A. Berg, W. P. Clarke, C. Sailstad, A. Saltzman and S. Maayani, Mol. Pharmacol. 1994, 46 (3), 477-484; Ding et al., ACS Chem. Neurosci. 3, 538-545, 2012). Cells were grown at 37° C., 5% CO2 and 85% relative humidity in GlutaMax α-MEM (Invitrogen, Carlsbad Calif.), 5% fetal bovine serum (Atlanta Biologicals, Atlanta Ga.), 100 μg/mL hygromycin (Mediatech, Manassas Va.) and were passaged when they reached 80% confluence.
Changes in Cai^++ levels were determined using the calcium sensitive dye Calcium 4 (FLIPR No-wash kit, Molecular Devices, Sunnyvale, Calif., part #R8142). Cells were plated in serum-replete medium at 20,000 cells/well in black-sided, clear bottom 96-well tissue culture plates and were fed ˜24 hrs later with serum-free medium. Following overnight incubation, medium was removed and replaced with 40 μL of fresh serum-free medium plus 40 μL Calcium 4 dye solution in Hank's balanced saline solution (HBSS, without CaCl2 or MgCl2) supplemented with 2.5 mM water soluble probenicid (Invitrogen) to inhibit extracellular transport of the dye. Plates were incubated for 60 min at 37° C. and 60 min at room temperature in the dark. Fluorescence (λex=485 nm, λem=525 nm) was measured with a FlexStation3 (Molecular Devices). A baseline was established for each well during the initial segment of each run. Addition of 20 μL of 5× concentrated tested compound occurred at 17 sec and fluorescence was recorded every 1.7 sec for 90 sec to determine any innate agonist activity. This first round of 90 sec recordings provided a 20 min preincubation period. […] Maximum peak height was determined by the FlexStation software (SoftMax Pro 5.2) for each well and was normalized to vehicle control.

T1 sequence (P28223 whole entry): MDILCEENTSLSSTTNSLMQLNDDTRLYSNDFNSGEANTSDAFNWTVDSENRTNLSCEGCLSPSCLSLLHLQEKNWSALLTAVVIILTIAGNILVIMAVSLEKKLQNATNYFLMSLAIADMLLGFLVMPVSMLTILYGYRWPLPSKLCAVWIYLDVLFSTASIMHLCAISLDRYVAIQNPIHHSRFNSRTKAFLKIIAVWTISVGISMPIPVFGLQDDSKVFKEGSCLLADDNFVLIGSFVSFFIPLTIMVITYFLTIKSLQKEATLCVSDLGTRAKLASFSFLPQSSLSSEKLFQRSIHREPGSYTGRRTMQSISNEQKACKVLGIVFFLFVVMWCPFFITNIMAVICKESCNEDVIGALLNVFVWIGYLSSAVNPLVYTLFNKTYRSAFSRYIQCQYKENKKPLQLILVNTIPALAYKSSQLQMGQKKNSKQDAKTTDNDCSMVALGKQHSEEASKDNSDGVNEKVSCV

CCCCCCCCCCC[C@@H]1CCN[C@H](C(=O)N[C@@H]([C@H]2O[C@H](SC)[C@H](O)[C@@H](O)[C@H]2O)[C@H](C)Cl)C1.Cl [CYD-1-78-2]
alteration of Cai++ release in 5-HT2AR-CHO cells (5-HT2AR): neither | Cai++ release induced by 0.3 nM 5-HT in presence of compound (5-HT2CR; 0.3 nM 5-HT (~EC20) alone gives 23.9%, 5-HTmax determined at 1 μM 5-HT): 48.5 % of 5-HTmax | effect on Cai++ release induced by 0.3 nM 5-HT (5-HT2CR; 0.3 nM 5-HT, 5-HT2CR-CHO cells): potentiated | concentrations that significantly enhanced Cai++ release above that of 0.3 nM 5-HT alone (5-HT2CR; 0.3 nM 5-HT, Dunnett's, p<0.05): 10^−13-10^−7 M | effect of 1 nM compound on Cai++ response at low concentrations of 5-HT (5-HT2CR; 1 nM compound, 5-HT 10^11-3×10^−10 M): enhanced | effect on Cai++ release at the highest concentration utilized (5-HT2CR; 10^−5 M compound, 0.3 nM 5-HT, p<0.05): reduced | Cai++ release in the absence of 5-HT (intrinsic agonist activity) (5-HT2CR; concentrations up to 10^−5 M, no 5-HT): n.s. and did not detect intrinsic agonist activity
